Test results published in patent US8754099B2, “Oxadiazole beta carboline derivatives as antidiabetic compounds” (Merck Sharp & Dohme Corp, priority 2010, dated 2014).
One block for each molecule: values may come before it.

Columns and labels:
human SSTR3 [1] = target: T1, human SSTR3 (Homo sapiens (Human), UniProt P32745); assay: SSTR3 functional antagonist assay (cAMP, FSK + SS-14, CHO cells); format: cell-based; conditions: 3.5 μM FSK + 100 nM SS-14; more active isomer
Experimental: The effects of compounds that bind to human and murine SSTR3 with various affinities on the functional activity of the receptor were assessed by measuring cAMP production in the presence of Forskolin (FSK) along or FSK plus SS-14 in SSTR3 expressing CHO cells. FSK acts to induce cAMP production in these cells by activating adenylate cyclases, whereas SS-14 suppresses cAMP production in the SSTR3 stable cells by binding to SSTR3 and the subsequent inhibition of adenylate cyclases via an alpha subunit of GTP-binding protein (Gαi).
To measure the antagonism activity of the compounds, we pre-incubated the human or mouse SSTR3 stable CHO cells with the compounds for 15 rain, followed by a one-hour incubation of the cells with a mixture of 3.5 μM FSK+100 nM SS-14 (in the continuous presence of the compounds). The amount of cAMP produced during the incubation was also quantified with the Lance cAMP assay. The antagonism activity of each compound was reflected both by % Inhibition (its maximum ability to block the action of SS-14) and an EC50 value which is the concentration of the test compound required to suppress the effect of 100 nM SS-14 by 50%. The % Inhibition of each compound was calculated using the following formula: % Inhibition=[1−(unknown cAMP/FSK+SS-14 cAMP)]×100

[2] = target: hERG potassium ion channel (Homo sapiens (Human), UniProt Q12809); assay: MK-499 binding; conditions: more active isomer
Sequence of hERG potassium ion channel (Q12809 whole entry): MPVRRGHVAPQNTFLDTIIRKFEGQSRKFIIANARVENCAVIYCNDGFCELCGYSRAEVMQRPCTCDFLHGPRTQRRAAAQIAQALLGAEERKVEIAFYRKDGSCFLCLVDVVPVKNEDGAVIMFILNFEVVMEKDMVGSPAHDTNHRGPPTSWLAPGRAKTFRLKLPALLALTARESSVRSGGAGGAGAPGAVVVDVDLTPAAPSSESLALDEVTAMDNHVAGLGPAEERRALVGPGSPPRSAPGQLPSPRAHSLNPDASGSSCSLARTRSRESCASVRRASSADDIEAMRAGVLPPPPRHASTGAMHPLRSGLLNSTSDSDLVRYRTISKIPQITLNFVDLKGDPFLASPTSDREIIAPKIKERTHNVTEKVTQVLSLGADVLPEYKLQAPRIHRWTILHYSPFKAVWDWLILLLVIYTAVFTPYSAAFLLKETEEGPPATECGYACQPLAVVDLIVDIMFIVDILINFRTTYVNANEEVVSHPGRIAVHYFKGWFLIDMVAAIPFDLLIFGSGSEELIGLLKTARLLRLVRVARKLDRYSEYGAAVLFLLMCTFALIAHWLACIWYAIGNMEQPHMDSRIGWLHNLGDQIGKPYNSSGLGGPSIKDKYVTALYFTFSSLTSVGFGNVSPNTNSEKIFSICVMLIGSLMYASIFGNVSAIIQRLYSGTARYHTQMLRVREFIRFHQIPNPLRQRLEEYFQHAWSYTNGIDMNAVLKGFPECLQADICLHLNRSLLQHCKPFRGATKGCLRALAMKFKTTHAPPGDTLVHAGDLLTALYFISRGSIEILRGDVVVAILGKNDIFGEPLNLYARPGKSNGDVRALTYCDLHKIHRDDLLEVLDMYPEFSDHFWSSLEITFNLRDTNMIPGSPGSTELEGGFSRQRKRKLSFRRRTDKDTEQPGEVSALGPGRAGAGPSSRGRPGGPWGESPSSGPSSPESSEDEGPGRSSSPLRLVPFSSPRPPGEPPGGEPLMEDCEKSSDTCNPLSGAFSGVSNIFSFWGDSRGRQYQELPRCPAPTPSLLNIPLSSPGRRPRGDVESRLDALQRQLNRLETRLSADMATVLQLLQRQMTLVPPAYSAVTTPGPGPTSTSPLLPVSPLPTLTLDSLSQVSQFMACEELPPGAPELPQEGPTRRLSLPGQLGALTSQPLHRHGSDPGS

human SSTR3 [3] = target: T1, human SSTR3; assay: SSTR3 binding Scintillation Proximity Assay (SPA); conditions: 125I-SS14 radioligand, CHO-K1 membranes; more active isomer
Experimental: The receptor-ligand binding Scintillation Proximity Assay (SPA) (N. D. Cook. Drug Discovery Today 1 (1996), pp. 287-294) for SSTR3 was performed with membranes isolated from Chinese hamster ovary (CHO)-K1 cells stably expressing the cloned human somatostatin receptors. Binding assays were performed in 384 well format using ^125I-SS14 as the radioligand for SSTR3. The assay buffer consisted of 50 mM TrisHCl (pH 7.8) with 1 mM EGTA, 5 mM MgCl2, leupeptin (10 μg/mL), pepstatin (10 μg/mL), bacitracin (200 μg/mL), and aprotinin (0.5 μg/mL). CHO-K1 cell membranes were prebound to SPA beads and incubated with unlabelled test compounds and radiolabeled somatostatin in assay buffer. After 5 hours at room temperature, cpm/well was determined. Test compounds were examined in 10 point titrations over a range of concentrations from 0.00001 nM to 1200 nM. Percent inhibition was determined for each data point using binding in the presence of DMSO as the maximum achievable value. The results were plotted using 4 parameter fit and the inflection point reflecting 50% of the maximum inhibition was reported as the IC50.

human SSTR3 [4] = target: T1, human SSTR3; assay: SSTR binding filtration assay (SSTR3); conditions: (3-125I-Tyr11)-SRIF-14 radioligand, CHO-K1 membranes; more active isomer
Experimental: The receptor-ligand binding assays of all 5 subtype of SSTRs were performed with membranes isolated from Chinese hamster ovary (CHO)-K1 cells stably expressing the cloned human somatostatin receptors in 96-well format as previous reported. (Yang et al. PNAS 95:10836-10841, 1998, Birzin et al. Anal. Biochem. 307:159-166, 2002.) The stable cell lines for SSTR1-SSTR5 were developed by stably transfecting with DNA for all five SSTRs using Lipofectamine. Neomycin-resistant clones were selected and maintained in medium containing 400 μg/mL G418 (Rohrer et al. Science 282:737-740, 1998).
Binding assays were performed using (3-^125I-Tyr11)-SRIF-14 as the radioligand (used at 0.1 nM) and The Packard Unifilter assay plate. The assay buffer consisted of 50 mM TrisHCl (pH 7.8) with 1 mM EGTA, 5 mM MgCl2, leupeptin (10 μg/mL), pepstatin (10 μg/mL), bacitracin (200 μg/mL), and aprotinin (0.5 μg/mL). CHO-K1 cell membranes, radiolabeled somatostatin, and unlabeled test compounds were resuspended or diluted in this assay buffer. Unlabeled test compounds were examined over a range of concentrations from 0.01 nM to 10,000 nM. The Ki values for compounds were determined as described by Cheng and Prusoff Biochem Pharmacol. 22:3099-3108 (1973).

T1 sequence (P32745 whole entry): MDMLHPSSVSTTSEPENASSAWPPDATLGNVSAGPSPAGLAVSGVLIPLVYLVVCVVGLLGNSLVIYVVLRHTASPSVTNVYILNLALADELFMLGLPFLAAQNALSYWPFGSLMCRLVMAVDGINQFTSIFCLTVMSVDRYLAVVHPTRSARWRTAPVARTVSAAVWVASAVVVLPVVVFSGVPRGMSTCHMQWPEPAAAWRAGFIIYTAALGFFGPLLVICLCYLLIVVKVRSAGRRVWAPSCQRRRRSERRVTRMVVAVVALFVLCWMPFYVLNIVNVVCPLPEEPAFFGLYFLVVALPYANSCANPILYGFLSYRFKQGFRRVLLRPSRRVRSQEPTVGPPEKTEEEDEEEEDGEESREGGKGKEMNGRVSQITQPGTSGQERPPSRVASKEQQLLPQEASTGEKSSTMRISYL

Compound: [2H]C([2H])([2H])OC1CC2C(C1)C2C1(c2nnc(C)o2)N[C@@H](c2nc(-c3ccc(F)c(C)n3)c[nH]2)Cc2c1[nH]c1ccccc21 (stereo partly shown) [Example 22]
EC50 (human SSTR3 [1]): 1.57 nM
IC50 [2]: 22800 nM
IC50 (human SSTR3 [3]): 1.2 nM

Compound: COCCOCC1(c2nnc(C3CCOCC3)o2)N[C@@H](c2nc(-c3ccc(F)cn3)c[nH]2)Cc2c1[nH]c1ccccc21 (stereo partly shown) [Example 10]
EC50 (human SSTR3 [1]): 2.4 nM
IC50 [2]: 23400 nM
Ki (human SSTR3 [4]): 2.7 nM

Compound: COC1CC(C2(c3nnc(C)o3)N[C@@H](c3nc(-c4ccc(F)c(C)n4)c[nH]3)Cc3c2[nH]c2ccccc32)C1 (stereo partly shown) [Example 17]
EC50 (human SSTR3 [1]): 1.7 nM
IC50 [2]: 21600 nM
Ki (human SSTR3 [4]): 1.8 nM

Compound: CCOCC1(c2nnc(C(C)(C)C)o2)N[C@@H](c2nc(-c3ccc(F)cn3)c[nH]2)Cc2c1[nH]c1ccccc21 (stereo partly shown) [Example 6]
EC50 (human SSTR3 [1]): 2.5 nM
IC50 [2]: 17900 nM
Ki (human SSTR3 [4]): 2.6 nM

Compound: Cc1nnc(C2(C3CCCCO3)N[C@@H](c3nc(-c4ccc(F)c(C)n4)c[nH]3)Cc3c2[nH]c2ccccc32)o1 (stereo partly shown) [Example 21]
EC50 (human SSTR3 [1]): 3.1 nM
IC50 [2]: 14600 nM
IC50 (human SSTR3 [3]): 1.7 nM

Compound: [2H]C([2H])([2H])COCC1(c2nnc(C)o2)N[C@@H](c2nc(-c3ccc(F)c(C)n3)c[nH]2)Cc2c1[nH]c1ccccc21 (stereo partly shown) [Example 16]
EC50 (human SSTR3 [1]): 8.5 nM
IC50 [2]: 22300 nM
Ki (human SSTR3 [4]): 0.6 nM

Compound: CCOCC1(c2nnc(CCOC)o2)N[C@@H](c2nc(-c3ccc(F)cn3)c[nH]2)Cc2c1[nH]c1ccccc21 (stereo partly shown) [Example 5]
EC50 (human SSTR3 [1]): 3.5 nM
IC50 [2]: 16500 nM
Ki (human SSTR3 [4]): 2.7 nM

Compound: CCOCC1(c2nnc(C(C)C)o2)N[C@@H](c2nc(-c3ccc(F)cn3)c[nH]2)Cc2c1[nH]c1ccccc21 (stereo partly shown) [Example 9]
EC50 (human SSTR3 [1]): 5.1 nM
IC50 [2]: 20200 nM
Ki (human SSTR3 [4]): 2.5 nM

Compound: Cc1nnc(C2(C3CCCO3)N[C@@H](c3nc(-c4ccc(F)c(C)n4)c[nH]3)Cc3c2[nH]c2ccccc32)o1 (stereo partly shown) [Example 20]
EC50 (human SSTR3 [1]): 4 nM
IC50 [2]: 17000 nM
Ki (human SSTR3 [4]): 0.9 nM
IC50 (human SSTR3 [3]): 4.6 nM

Compound: COCCOCC1(c2nnc(C(C)(C)C)o2)N[C@@H](c2nc(-c3ccc(F)cn3)c[nH]2)Cc2c1[nH]c1ccccc21 (stereo partly shown) [Example 8]
EC50 (human SSTR3 [1]): 3.7 nM
IC50 [2]: 19700 nM
Ki (human SSTR3 [4]): 1.4 nM

The next molecules have a lower EC50 (human SSTR3 [1]) than those just listed; values first:

EC50 (human SSTR3 [1]): 1.3 nM
Ki (human SSTR3 [4]): 0.4 nM
Compound: CCOCC1(c2nnc(C(C)C)o2)N[C@@H](c2nc(-c3ccc(F)c(C)n3)c[nH]2)Cc2c1[nH]c1ccccc21 (stereo partly shown) [Example 14]
IC50 [2]: 18600 nM

EC50 (human SSTR3 [1]): 1 nM
Ki (human SSTR3 [4]): 0.4 nM
Compound: COCCOCC1(c2nnc(C)o2)N[C@@H](c2nc(-c3ccc(F)c(C)n3)c[nH]2)Cc2c1[nH]c1ccccc21 (stereo partly shown) [Example 12]
IC50 [2]: 27700 nM

EC50 (human SSTR3 [1]): 0.9 nM
Ki (human SSTR3 [4]): 0.9 nM
Compound: CCOCC1(c2nnc(CCOC)o2)N[C@@H](c2nc(-c3ccc(F)c(C)n3)c[nH]2)Cc2c1[nH]c1ccccc21 (stereo partly shown) [Example 7]
IC50 [2]: 23200 nM

EC50 (human SSTR3 [1]): 0.7 nM
Ki (human SSTR3 [4]): 0.5 nM
Compound: CCOCC1(c2nnc(C3(C)CCCO3)o2)N[C@@H](c2nc(-c3ccc(F)c(C)n3)c[nH]2)Cc2c1[nH]c1ccccc21 (stereo partly shown) [Example 11]
IC50 [2]: 19200 nM

EC50 (human SSTR3 [1]): 0.7 nM
Ki (human SSTR3 [4]): 0.6 nM
Compound: Cc1nc(-c2c[nH]c([C@H]3Cc4c([nH]c5ccccc45)C(c4nnc(C(C)C)o4)(C4CCOCC4)N3)n2)ccc1F (stereo partly shown) [Example 19]
IC50 [2]: 16000 nM

EC50 (human SSTR3 [1]): 0.6 nM
Ki (human SSTR3 [4]): 0.3 nM
Compound: COC1CCC(C2(c3nnc(C)o3)NC(c3nc(-c4ccc(F)c(C)n4)c[nH]3)Cc3c2[nH]c2ccccc32)CC1 (stereo not shown) [Example 18]
IC50 [2]: 17500 nM

EC50 (human SSTR3 [1]): 0.6 nM
Ki (human SSTR3 [4]): 0.4 nM
Compound: COCCOCC1(c2nnc(C(C)C)o2)N[C@@H](c2nc(-c3ccc(F)c(C)n3)c[nH]2)Cc2c1[nH]c1ccccc21 (stereo partly shown) [Example 15]
IC50 [2]: 19200 nM

EC50 (human SSTR3 [1]): 0.5 nM
Ki (human SSTR3 [4]): 0.5 nM
Compound: COCCOCC1(c2nnc(C3CCOCC3)o2)N[C@@H](c2nc(-c3ccc(F)c(C)n3)c[nH]2)Cc2c1[nH]c1ccccc21 (stereo partly shown) [Example 13]
IC50 [2]: 19600 nM
